Measured values taken from the supplement of paper PMC10307832.

Experiments:
Assay in all cases: relative viability (nuclei count vs DMSO), 5 days (fraction); higher = more cells survive
Bortezomib + Vorinostat = compound: CC(C)C[C@H](NC(=O)[C@H](Cc1ccccc1)NC(=O)c1cnccn1)B(O)O [Bortezomib] + O=C(CCCCCCC(=O)Nc1ccccc1)NO [Vorinostat] (partner 1 µM)
How it was run: (§1)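 One day after seeding in 1536-well plates, lung cancer cell lines were dosed by pin tool. Dosing was either single-drug or a fixed anchor-drug dose plus five library-drug doses (not always all listed) in √10 steps. After 5 days, nuclei were stained in one fix-and-stain step and counted on 4× images, and relative viability is the nuclei count of treated wells over that of vehicle wells, given as the median of duplicate plates.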

Bortezomib + Decitabine = compound: CC(C)C[C@H](NC(=O)[C@H](Cc1ccccc1)NC(=O)c1cnccn1)B(O)O [Bortezomib] + Nc1ncn([C@H]2C[C@H](O)[C@@H](CO)O2)c(=O)n1 [Decitabine] (partner 2 µM)
How it was run: as §1

[1] = compound: CC1=CC(=NN1)NC2=CC(=NC(=N2)/C=C/C3=CC=CC=C3)N4CCN(CC4)C + Cc1nc(NC(=O)N2CCC[C@H]2C(N)=O)sc1-c1ccnc(C(C)(C)C(F)(F)F)c1 [Alpelisib] (partner 2 µM)
How it was run: as §1

Obatoclax + Bortezomib = compound: COC1=CC(c2cc3ccccc3[nH]2)=N/C1=C\c1[nH]c(C)cc1C [Obatoclax] + CC(C)C[C@H](NC(=O)[C@H](Cc1ccccc1)NC(=O)c1cnccn1)B(O)O [Bortezomib] (partner 0.002 µM)
How it was run: as §1

Cell Line | relative viability (Bortezomib + Vorinostat; first compound 0.0002 µM) | relative viability (Bortezomib + Vorinostat; first compound 0.000632 µM) | relative viability (Bortezomib + Vorinostat; first compound 0.002 µM) | relative viability (Bortezomib + Vorinostat; first compound 0.006325 µM) | relative viability (Bortezomib + Vorinostat; first compound 0.02 µM) | relative viability (Bortezomib + Decitabine; first compound 0.0002 µM) | relative viability (Bortezomib + Decitabine; first compound 0.000632 µM) | relative viability (Bortezomib + Decitabine; first compound 0.002 µM) | relative viability (Bortezomib + Decitabine; first compound 0.006325 µM) | relative viability (Bortezomib + Decitabine; first compound 0.02 µM) | relative viability ([1]; first compound 0.08 µM) | relative viability ([1]; first compound 0.253 µM) | relative viability ([1]; first compound 0.8 µM) | relative viability ([1]; first compound 2.53 µM) | relative viability ([1]; first compound 8 µM) | relative viability (Obatoclax + Bortezomib; first compound 0.01 µM) | relative viability (Obatoclax + Bortezomib; first compound 0.03162 µM) | relative viability (Obatoclax + Bortezomib; first compound 0.1 µM) | relative viability (Obatoclax + Bortezomib; first compound 0.3162 µM) | relative viability (Obatoclax + Bortezomib; first compound 1 µM)
NCI-H1355 | 0.632 | 0.657 | 0.696 | 0.416 | 0.121 | 0.343 | 0.362 | 0.367 | 0.177 | 0.139 | 0.863 | 0.859 | 0.683 | 0.605 | 0.192 | 1.23 | 1.11 | 1.09 | 1.06 | 1.21
NCI-H1437 | 0.782 | 0.875 | 0.555 | 0.219 | 0.172 | 0.585 | 0.585 | 0.595 | 0.214 | 0.223 | 1.02 | 1.01 | 0.881 | 0.972 | 0.285 | 0.463 | 0.421 | 0.477 | 0.438 | 0.358
NCI-H1651 | 0.568 | 0.571 | 0.534 | 0.587 | 0.134 | 0.659 | 0.732 | 0.619 | 0.665 | 0.172 | 0.816 | 0.919 | 1.15 | 0.558 | 0.146 | 0.901 | 0.855 | 0.858 | 0.943 | 0.992
NCI-H1666 | 1.03 | 1.04 | 1.11 | 0.539 | 0.5 | 0.782 | 0.839 | 0.728 | 0.646 | 0.477 | 0.999 | 1.07 | 0.817 | 0.501 | 0.183 | 0.863 | 0.815 | 0.979 | 0.348 | 0.35
NCI-H1734 | 0.832 | 0.845 | 0.635 | 0.115 | 0.0944 | 0.552 | 0.503 | 0.462 | 0.12 | 0.0968 | 0.601 | 0.695 | 0.692 | 0.375 | 0.189 | 0.928 | 0.818 |  | 0.914 | 0.836
NCI-H1755 | 0.813 | 0.644 | 0.748 | 0.245 | 0.208 | 0.699 | 0.716 | 0.734 | 0.452 | 0.237 | 0.9 | 1.07 | 0.887 | 0.456 | 0.155 | 0.926 | 0.937 | 0.805 | 0.949 | 0.967
NCI-H1915 | 0.514 | 0.531 | 0.555 | 0.286 | 0.0313 | 0.266 | 0.256 | 0.254 | 0.14 | 0.059 | 1.07 | 1.07 | 0.977 | 0.806 | 0.324 | 1.05 | 0.748 | 0.93 | 1.01 | 0.975
NCI-H1975 | 0.661 | 0.655 | 0.154 | 0.123 | 0.135 | 0.411 | 0.371 | 0.176 | 0.126 | 0.115 | 0.59 | 0.655 | 0.42 | 0.141 | 0.109 | 0.357 | 0.456 | 0.361 | 0.49 | 0.253
NCI-H1993 | 0.894 | 0.987 | 0.605 | 0.258 | 0.266 | 0.634 | 0.717 | 0.622 | 0.319 | 0.374 | 0.63 |  | 0.581 | 0.61 | 0.493 | 1.2 | 1.05 | 1.22 | 1.2 | 1.2
NCI-H2009 | 0.745 | 0.735 | 0.703 | 0.0608 | 0.0437 | 0.392 | 0.431 | 0.388 | 0.101 | 0.0757 | 1.09 | 1.19 | 1.16 | 1.13 | 0.241 | 1.01 | 1.12 | 0.764 | 0.395 | 0.203
NCI-H2023 | 0.813 | 0.423 | 0.618 | 0.078 | 0.0655 | 0.216 | 0.236 | 0.245 | 0.122 | 0.0571 | 0.482 | 0.645 | 0.626 | 0.417 | 0.0558 | 1.03 | 1.08 | 0.808 | 0.675 | 0.425
NCI-H2085 | 0.753 | 0.78 | 0.83 | 0.255 | 0.217 | 0.588 | 0.544 | 0.593 | 0.298 | 0.246 | 0.874 | 0.952 | 1.07 | 0.741 | 0.301 | 1.06 | 1.1 | 0.93 | 0.88 | 0.427
NCI-H2087 | 0.465 | 0.886 | 0.555 | 0.0577 | 0.0279 | 0.233 | 0.265 | 0.141 | 0.0621 | 0.0401 | 1.11 | 1.04 | 1.07 | 0.965 | 0.135 | 0.645 | 0.775 | 0.665 | 0.779 | 0.335
NCI-H2126 | 0.693 | 0.875 | 0.751 | 0.641 | 0.478 | 0.603 | 0.597 | 0.535 | 0.552 | 0.197 | 0.776 | 0.802 | 0.76 | 0.674 | 0.377 | 1.13 | 1.04 | 1.09 | 1.12 | 1.07
NCI-H2347 | 0.621 | 0.526 | 0.384 | 0.28 | 0.235 | 0.631 | 0.601 | 0.648 | 0.466 | 0.429 | 1.06 | 1.15 | 1.07 | 0.915 | 0.517 | 0.935 | 0.859 | 1.07 |  | 0.95
NCI-H2405 | 0.977 | 1.02 | 0.812 | 0.133 | 0.119 | 0.716 | 0.692 | 0.545 | 0.212 | 0.181 | 0.687 | 0.6 | 0.983 | 0.414 | 0.148 | 1.01 | 0.852 |  | 0.982 | 1.07
